In patent US20060084135A1, “Compositions for manipulating the lifespan and stress response of cells and organisms” (priority 2003, published 2006):
Where “and” joins values, the source holds several entries; their conditions need not be identical. Equal entries are not always repeated. Structures can show the parent of a compound that is named as a salt. Where two headings read alike, the source gives them in different places. Values belong to the compound of their own block, whether it stands above or below them.

Target: T1, recombinant human SIRT1 (Homo sapiens, UniProt Q96EB6)
T1 sequence (Q96EB6 1-747): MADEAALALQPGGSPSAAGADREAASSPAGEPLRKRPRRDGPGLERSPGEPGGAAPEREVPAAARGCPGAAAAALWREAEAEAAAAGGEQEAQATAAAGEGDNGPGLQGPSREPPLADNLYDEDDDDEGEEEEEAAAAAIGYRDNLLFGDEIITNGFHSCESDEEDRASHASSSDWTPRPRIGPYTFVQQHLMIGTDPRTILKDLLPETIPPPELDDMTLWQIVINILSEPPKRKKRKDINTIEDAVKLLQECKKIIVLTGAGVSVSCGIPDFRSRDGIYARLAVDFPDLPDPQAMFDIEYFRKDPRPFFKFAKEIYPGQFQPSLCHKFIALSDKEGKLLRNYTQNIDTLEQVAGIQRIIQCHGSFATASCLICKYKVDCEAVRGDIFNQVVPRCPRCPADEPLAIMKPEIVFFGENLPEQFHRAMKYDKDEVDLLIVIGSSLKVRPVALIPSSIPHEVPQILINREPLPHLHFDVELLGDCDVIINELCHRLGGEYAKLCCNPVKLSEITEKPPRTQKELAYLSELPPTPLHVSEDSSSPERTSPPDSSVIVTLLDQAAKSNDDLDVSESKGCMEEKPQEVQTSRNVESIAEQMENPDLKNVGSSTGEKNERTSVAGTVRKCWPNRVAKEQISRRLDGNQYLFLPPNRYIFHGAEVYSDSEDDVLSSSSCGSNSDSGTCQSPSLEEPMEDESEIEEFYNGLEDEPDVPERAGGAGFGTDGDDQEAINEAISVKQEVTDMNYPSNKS
Assay: SIRT1 fluorescent deacetylation assay (p53-382 acetylated peptide substrate)
Format: biochemical

[1] = Supplementary Table 6, free radical protective compounds, 100 μM, 25 μM NAD+, 25 μM p53-382 acetylated peptide
[2] = Supplementary Table 2, flavones part I, 100 μM, 25 μM NAD+, 25 μM p53-382 acetylated peptide
[3] = Supplementary Table 3, flavones part II, 100 μM, 25 μM NAD+, 25 μM p53-382 acetylated peptide
[4] = Supplementary Table 7, miscellaneous compounds, 100 μM, 25 μM NAD+, 25 μM p53-382 acetylated peptide

Ratio to Control Rate Mean ± SE [1]: 2.48 ± 0.15
SMILES: CC(C)c1cccc(=O)c(O)c1 [Hinokitiol, 2-hydroxy-4-isopropyl-2,4,6-cycloheptatrien-1-one]

Ratio to Control Rate Mean ± SE [2]: 5.66 ± 0.80
SMILES: O=c1cc(-c2ccc(O)c(O)c2)oc2cc(O)cc(O)c12 [Luteolin, 5,7,3′,4′-Tetrahydroxyflavone]

Ratio to Control Rate Mean ± SE [3]: 1.461 ± 0.071
SMILES: O=c1c(O)c(-c2ccc(O)cc2O)oc2cc(O)cc(O)c12 [Morin, 3,5,7,2′,4′-Pentahydroxyflavone]

Ratio to Control Rate Mean ± SE [3]: 0.898 ± 0.070
SMILES: O=c1c(O)c(-c2cc(O)c(O)c(O)c2)oc2cc(O)cc(O)c12 [Myricetin, 3,5,7,3′,4′,5′-Hexahydroxyflavone]

Ratio to Control Rate Mean ± SE (Supplementary Table 4, isoflavones, flavanones, anthocyanidins, 100 μM, 25 μM NAD+, 25 μM p53-382 acetylated peptide): 2.10 ± 0.23
SMILES: O=C1CC(c2ccc(O)cc2)Oc2cc(O)cc(O)c21 (centres unmarked) [Naringenin, 5,7,4′-Trihydroxyflavanone]

Ratio to Control Rate Mean ± SE (Supplementary Table 1, stilbenes and chalcones, 100 μM, 25 μM NAD+, 25 μM p53-382 acetylated peptide): 1.40 ± 0.37
SMILES: COc1ccc(/C=C/c2cc(O)cc(O[C@@H]3O[C@H](CO)[C@@H](O)[C@H](O)[C@H]3O)c2)cc1O [Rhapontin, 3,3′,5-Trihydroxy-4′-methoxystilbene 3-O-β-D-glucoside]

Ratio to Control Rate Mean ± SE (Supplementary Table 8, compound concentration not given, 25 μM NAD+, 25 μM p53-382 acetylated peptide): 0.069 ± 0.028
SMILES: CCCCCCCCCCCCC/C=C/[C@@H](O)[C@@H](N)CO [Sphingosine]

The next lines start with the compound.

SMILES: Cl.O.O=C(O)CN(CCN(CC(=O)O)Cc1ccccc1O)Cc1ccccc1O [HBED, N,N′-Di-(2-hydroxybenzyl)ethylenediamine-N,N′-diacetic acid.HCl.H2O, reference compound]
Ratio to Control Rate Mean ± SE [1]: 1.150 ± 0.090

SMILES: O=c1c(O)c(-c2ccc(O)cc2)oc2cc(O)cc(O)c12 [Kaempferol, 3,5,7,4′-Tetrahydroxyflavone]
Ratio to Control Rate Mean ± SE [2]: 3.55 ± 0.56

SMILES: C[N+](C)(C)[C@@H](Cc1c[nH]c(=S)[nH]1)C(=O)[O-] [L-(+)-Ergothioneine, (S)-a-Carboxy-2,3-dihydro-N,N,N-trimethyl-2-thioxo-1H-imidazole-4-ethanaminium inner salt]
Ratio to Control Rate Mean ± SE [1]: 2.06 ± 0.48

SMILES: CC1=NN(c2ccccc2)C(=O)C1 [MCI-186, 3-Methyl-1-phenyl-2-pyrazolin-5-one, reference compound]
Ratio to Control Rate Mean ± SE [1]: 1.2513 ± 0.0080

SMILES: CC(Cc1ccc(O)c(O)c1)C(C)Cc1ccc(O)c(O)c1 (centres unmarked) [NDGA]
Ratio to Control Rate Mean ± SE (Supplementary Table 8, compound at 100 μM, 25 μM NAD+, 25 μM p53-382 acetylated peptide): 1.738 ± 0.088

SMILES: O=C(Nc1cccc(C(=O)Nc2ccc(S(=O)(=O)O)c3cc(S(=O)(=O)O)cc(S(=O)(=O)O)c23)c1)Nc1cccc(C(=O)Nc2ccc(S(=O)(=O)O)c3cc(S(=O)(=O)O)cc(S(=O)(=O)O)c23)c1 [NF023, reference compound]
Ratio to Control Rate Mean ± SE [4]: −0.0016

SMILES: O=C(Nc1ccc(C(=O)Nc2ccc(C(=O)Nc3ccc(S(=O)(=O)O)c4cc(S(=O)(=O)O)cc(S(=O)(=O)O)c34)cc2)cc1)Nc1ccc(C(=O)Nc2ccc(C(=O)Nc3ccc(S(=O)(=O)O)c4cc(S(=O)(=O)O)cc(S(=O)(=O)O)c34)cc2)cc1 [NF279, reference compound]
Ratio to Control Rate Mean ± SE [4]: 0.0035

SMILES: NC(=O)c1cccnc1 [Nicotinamide, reference compound]
SIRT1 Vmax decrease (50 μM nicotinamide, absence of resveratrol, NAD+ or p53-382 peptide varied): 30% and 36% | Ratio to Control Rate Mean ± SE [4]: 0.428

SMILES: Oc1ccc(-c2[o+]c3cc(O)cc(O)c3cc2O)cc1.[Cl-] [Pelargonidin chloride, 3,5,7.4′-Tetrahydroxyflavylium chloride]
Ratio to Control Rate Mean ± SE: 1.586

SMILES: COc1ccc(/C=C/c2cc(O)cc(O)c2)cc1O [Rhapontin aglycone, 3,5,3′Trihydroxy-4′-methoxy-trans-stilbene]
Ratio to Control Rate Mean ± SE (Table 11, resveratrol analogs, 100 μM, 25 μM NAD+, 25 μM p53-382 acetylated peptide): 4.060 ± 0.069

SMILES: Cc1ccc(C(=O)Nc2ccc(S(=O)(=O)O)c3cc(S(=O)(=O)O)cc(S(=O)(=O)O)c23)cc1NC(=O)c1cccc(NC(=O)Nc2cccc(C(=O)Nc3cc(C(=O)Nc4ccc(S(=O)(=O)O)c5cc(S(=O)(=O)O)cc(S(=O)(=O)O)c45)ccc3C)c2)c1 [Suramin, reference compound]
Ratio to Control Rate Mean ± SE: −0.0002

SMILES: Cc1c(C)c2c(c(C)c1O)CCC(C)(C(=O)O)O2 (centres unmarked) [Trolox, 6-Hydroxy-2,5,7,8-tetramethylchroman-2-carboxylic acid, reference compound]
Ratio to Control Rate Mean ± SE [1]: 0.995 ± 0.019
